pIC50: −log10 of the molar value.
Legend:
Type in all cases: cell-based
[1] = test system: intracellular T. cruzi amastigotes; assay: T. cruzi amastigote growth inhibition assay (NIH 3T3 host cells, β-galactosidase readout); conditions: Trypanosoma cruzi, NIH3T3, read-out: (c) T.c.* IC50
Method: NIH 3T3 fibroblast cells (ATCC) were maintained in RPMI-1640 medium (Life Technologies) supplemented with 10% heat-inactivated fetal bovine serum and 100 IU penicillin/100 μg/ml streptomycin at 37° C./5% CO2. T. cruzi Tulahuen parasites constitutively expressing E. coli β-galactosidase were maintained in tissue culture as an infection in NIH 3T3 fibroblast cells. Briefly, 2×10^7 T. cruzi trypomastigotes were used to infect 6×10^5 NIH 3T3 cells growing in T75 CELLSTAR tissue culture flasks and cultured at 37° C./5% CO2 until proliferating intracellular parasites lysed host 3T3 cells and were released into the culture medium (typically 6-7 days). During the infection, the tissue culture medium was changed every two days. Number of T. cruzi trypomastigotes present in 1 ml of medium was determined using a haemocytometer.
To determine compound potency on intracellular T. cruzi amastigotes, NIH 3T3 cells were re-suspended in phenol red-free RPMI-1640 medium containing 3% heat-inactivated fetal bovine serum and 100 IU penicillin/100 μg/ml streptomycin, seeded at 1,000 cells/well (40 μl) in white, clear bottom 384-well plates (Greiner Bio-One), and incubated overnight at 37° C./5% CO2. The following day, 100 nl of each compound in DMSO were transferred to individual plate wells by Echo 555 acoustic liquid handling system. After one hour incubation, 1×10^6 of tissue culture-derived T. cruzi trypomastigotes, in 10 μl of phenol red-free RPMI-1640 medium supplemented with 3% heat-inactivated fetal bovine serum and 100 IU penicillin/100 μg/ml streptomycin were added to each well. Plates were then incubated for 6 days at 37° C./5% CO2. Intracellular T. cruzi parasites were quantified by measuring the activity of parasite-expressed β-galactosidase. Ten microliters of a chromogenic β-galactosidase substrate solution (0.6 mM chlorophenol red-β-D-galactopyranoside/0.6% NP-40 in PBS; both reagents from Calbiochem) were added to each well and incubated for 2 h at room temperature. After incubation, absorption was measured at 570 nm on SpectraMax M2 plate reader (Molecular Devices). Measured absorbance values in wells with compounds were divided by the average absorbance value of the plate DMSO controls, and used for calculation of compound EC50 values as described above.

[2] = test system: T. b. brucei Lister427 bloodstream form parasites; assay: T. b. brucei growth inhibition assay (CellTiter-Glo, 48 hours); conditions: Trypanosoma brucei
Description: Bloodstream form of T. b. brucei Lister427 strain was obtained from the Genomics Institute of the Novartis Research Foundation. This strain was used for carrying out growth inhibition and kill kinetics assays. T. b. gambiense STIB930 and T. b. rhodesiense STIB900 were obtained from Swiss TPH, were used for carrying out the growth inhibition assays.
Bloodstream form T. b. brucei Lister 427 parasites were continuously passaged in HMI-9 medium formulated from IMDM medium (Invitrogen), 10% heat-inactivated fetal bovine serum (FBS), 10% Serum Plus medium supplement (SAFC Biosciences), 1 mM hypoxanthine (Sigma-Aldrich), 50 μM bathocuproine disulfonic acid (Sigma-Aldrich), 1.5 mM cysteine (Sigma-Aldrich), 1 mM pyruvic acid (Sigma-Aldrich), 39 μg/mL thymidine (Sigma-Aldrich), and 14 μL/L beta-mercapthoethanol (Sigma-Aldrich); all concentrations of added components refer to that in complete HMI-9 medium. The parasites were cultured in 10 mL of HMI-9 medium in T75 CELL-STAR tissue culture flasks at 37° C./5% CO2.
(§1) To determine compound growth inhibitory potency on T. b. brucei Lister427 bloodstream form parasites, 200 nL of 10-point, 3 fold serially diluted compounds in DMSO were transferred to the wells of white, solid bottom 384-well plates (Greiner Bio-One) by either Echo 555 acoustic liquid handling system or Mosquito. Then, 1×10^4 of T. b. brucei parasites in 40 μL of HMI-9 medium were added to each well, and the plates were incubated for 48 hours at 37° C. in 5% CO2 incubators. Parasite numbers in individual plate wells were determined through quantification of intracellular ATP amount. The CellTiter-Glo luminescent cell viability reagent (Promega) was added to plate wells, and ATP-dependent luminescence signal was measured on Tecan M1000 plate Reader after 30 min incubation. Luminescence values in wells with compounds were divided by the average luminescence value of the plate DMSO controls, and used for calculation of compound IC50 values.

[3] = test system: T.b. gambinese STIB930; assay: T.b. gambiense growth inhibition assay; conditions: Trypanosoma brucei, read-out: (b) T.b.g* IC50
Method: as §1, with “Bloodstream form of T. b. brucei Lister427 strain was obtained from the Genomics Institute of the Novartis Research Foundation. This strain was used for carrying out growth inhibition and kill kinetics assays. T. b. gambiense STIB930 and T. b. rhodesiense STIB900 were obtained from Swiss TPH, were used for carrying out the growth inhibition assays. Bloodstream form of T. b. gambiense and T. b. rhodesiense were also grown in HMI-9 media, described above, but the media was supplemented by 5% human serum and 5% heat-inactivated FBS instead of 10% FBS. To” for “To”, “values. Similar assay was also used for determining IC50 against T.b. gambinese STIB930 and T. b. rhodesiense STIB900 strains, but the initial concentration of cells used was 3×10^4 parasites/ml.” for “values.”

[4] = test system: Leishmania donovani axenic amastigote; assay: Growth inhibition of Leishmania donovani axenic amastigote; conditions: L. donovani growth inhibition, read-out: (d) L.d* IC50
Method: Leishmania donovani axenic amastigote parasites are grown at 37° C., 5% CO2 in media made of RPMI 1640, 4 mM L-glutamine, 20% heat inactivated FBS, 100 units/ml of penicillin and 100 μg/ml of streptomycin, 23 μM Folic Acid, 100 μM Adenosine, 22 mM D-glucose, 25 mM MES. The pH of media is adjusted to 5.5 at 37° C. using HCl. 20 μL of media is first dispensed into 384 well plates and 100 nL of the compounds of invention in DMSO are added to the plate wells. At the same time control compounds and DMSO are added to plates to serve as the positive and negative controls, respectively. 40 μL of parasite culture (9600 parasites) are then added to the plate wells. The plates are then placed into incubators. After 2 day incubation, 20 μL of Cell TiterGlo (Promega) is added to the plate wells. The luminescence signal of each well is measured using the Envision reader (Perkin Elmer). The percentage inhibition of 50%, EC50, is calculated for each of the compounds.

Structure (SMILES)	pIC50 [1]	pIC50 [2]	pIC50 [3]	pIC50 [4]
N#Cc1ncn(CC(=O)N2Cc3ccc(-c4ccc(F)nc4C(F)(F)F)cc3C2)n1 [Example 26, 1-(2-(5-(6-fluoro-2-(trifluoromethyl)pyridin-3-yl)isoindolin-2-yl)-2-oxoethyl)-1H-1,2,4-triazole-3-carbonitrile]	> 7.00	6.00 to 7.00	–	–
N#Cc1ncn(CC(=O)N2Cc3ccc(-c4ccncc4C(F)(F)F)cc3C2)n1 [Example 27, 1-(2-oxo-2-(5-(3-(trifluoromethyl)pyridin-4-yl)isoindolin-2-yl)ethyl)-1H-1,2,4-triazole-3-carbonitrile]	> 7.00	> 7.00	> 7.00	–
N#Cc1ncn(CC(=O)N2Cc3ccc(-c4ccc(F)cc4C#N)cc3C2)n1 [Example 32, 1-(2-(5-(2-cyano-4-fluorophenyl)isoindolin-2-yl)-2-oxoethyl)-1H-1,2,4-triazole-3-carbonitrile]	> 7.00	6.00 to 7.00	–	≤ 6.00
N#Cc1ncn(CC(=O)N2Cc3ccc(-c4c(Cl)cccc4Cl)cc3C2)n1 [Example 35, 1-(2-(5-(2,6-dichlorophenyl)isoindolin-2-yl)-2-oxoethyl)-1H-1,2,4-triazole-3-carbonitrile]	> 7.00	6.00 to 7.00	–	≤ 6.00
N#Cc1ncn(CC(=O)N2Cc3ccc(-c4ccccc4C(F)(F)F)cc3C2)n1 [Example 36, 1-(2-oxo-2-(5-(2-(trifluoromethyl)phenyl)isoindolin-2-yl)ethyl)-1H-1,2,4-triazole-3-carbonitrile]	> 7.00	6.00 to 7.00	–	≤ 6.00
COCCOc1cc(F)ccc1-c1ccc2c(c1)CN(C(=O)Cn1cnc(C#N)n1)C2 [Example 39, 1-(2-(5-(4-fluoro-2-(2-methoxyethoxy)phenyl)isoindolin-2-yl)-2-oxoethyl)-1H-1,2,4-triazole-3-carbonitrile]	≤ 6.00	6.00 to 7.00	–	–
N#Cc1ncn(CC(=O)N2Cc3ccc(-c4ccccc4OC(F)(F)F)cc3C2)n1 [Example 40, 1-(2-oxo-2-(5-(2-(trifluoromethoxy)phenyl)isoindolin-2-yl)ethyl)-1H-1,2,4-triazole-3-carbonitrile]	6.00 to 7.00	6.00 to 7.00	–	–
N#Cc1ncn(CC(=O)N2Cc3ccc(-c4ccc(C(F)(F)F)cc4Cl)cc3C2)n1 [Example 42, 1-(2-(5-(2-chloro-4-(trifluoromethyl)phenyl)isoindolin-2-yl)-2-oxoethyl)-1H-1,2,4-triazole-3-carbonitrile]	≤ 6.00	6.00 to 7.00	–	–
N#Cc1ncn(CC(=O)N2Cc3ccc(-c4ccccc4C#N)cc3C2)n1 [Example 43, 1-(2-(5-(2-cyanophenyl)isoindolin-2-yl)-2-oxoethyl)-1H-1,2,4-triazole-3-carbonitrile]	> 7.00	6.00 to 7.00	–	≤ 6.00
N#Cc1ncn(CC(=O)N2Cc3ccc(-c4cccc(C#N)c4F)cc3C2)n1 [Example 44, 1-(2-(5-(3-cyano-2-fluorophenyl)isoindolin-2-yl)-2-oxoethyl)-1H-1,2,4-triazole-3-carbonitrile]	6.00 to 7.00	6.00 to 7.00	–	–
N#Cc1ccc(-c2ccc3c(c2)CN(C(=O)Cn2cnc(C#N)n2)C3)cc1 [Example 46, 1-(2-(5-(4-cyanophenyl)isoindolin-2-yl)-2-oxoethyl)-1H-1,2,4-triazole-3-carbonitrile]	6.00 to 7.00	6.00 to 7.00	–	≤ 6.00
Cn1nc(C(F)(F)F)cc1-c1ccc2c(c1)CN(C(=O)Cn1cnc(C#N)n1)C2 [Example 48, 1-(2-(5-(1-methyl-3-(trifluoromethyl)-1H-pyrazol-5-yl)isoindolin-2-yl)-2-oxoethyl)-1H-1,2,4-triazole-3-carbonitrile]	6.00 to 7.00	6.00 to 7.00	–	–
CC(=O)c1ccccc1-c1ccc2c(c1)CN(C(=O)Cn1cnc(C#N)n1)C2 [Example 50, 1-(2-(5-(2-acetylphenyl)isoindolin-2-yl)-2-oxoethyl)-1H-1,2,4-triazole-3-carbonitrile]	6.00 to 7.00	6.00 to 7.00	–	–
COc1cc(F)ccc1-c1ccc2c(c1)CN(C(=O)Cn1cnc(C#N)n1)C2 [Example 51, 1-(2-(5-(4-fluoro-2-methoxyphenyl)isoindolin-2-yl)-2-oxoethyl)-1H-1,2,4-triazole-3-carbonitrile]	6.00 to 7.00	6.00 to 7.00	–	–
COc1ccc(Cl)cc1-c1ccc2c(c1)CN(C(=O)Cn1cnc(C#N)n1)C2 [Example 52, 1-(2-(5-(5-chloro-2-methoxyphenyl)isoindolin-2-yl)-2-oxoethyl)-1H-1,2,4-triazole-3-carbonitrile]	6.00 to 7.00	6.00 to 7.00	–	–
N#Cc1ncn(CC(=O)N2Cc3ccc(-c4cccc(F)c4C(F)(F)F)cc3C2)n1 [Example 84, 1-(2-(5-(3-fluoro-2-(trifluoromethyl)phenyl)isoindolin-2-yl)-2-oxoethyl)-1H-1,2,4-triazole-3-carbonitrile]	> 7.00	6.00 to 7.00	–	–
N#Cc1ncn(CC(=O)N2Cc3ccc(-c4cnccc4C(F)(F)F)cc3C2)n1 [Example 86, 1-(2-oxo-2-(5-(4-(trifluoromethyl)pyridin-3-yl)isoindolin-2-yl)ethyl)-1H-1,2,4-triazole-3-carbonitrile]	6.00 to 7.00	6.00 to 7.00	–	–

— patent US20220106296A1, “CYANOTRIAZOLE COMPOUNDS AND USES THEREOF” (Novartis AG, priority 2018, published 2022)
